Data: ChEMBL document CHEMBL1201862, “PubChem BioAssay data set” (2004)
Active and inactive are the calls of the source.

Assays:
[1] = target: T1, Sentrin-specific protease 1 (Homo sapiens, UniProt Q9P0U3); assay: potency of human SENP1 inhibitors, dose response, biochemical, kinetic FRET (AID 651697); format: functional; conditions: read-out: IC50_Mean
T1 sequence (Q9P0U3 whole entry): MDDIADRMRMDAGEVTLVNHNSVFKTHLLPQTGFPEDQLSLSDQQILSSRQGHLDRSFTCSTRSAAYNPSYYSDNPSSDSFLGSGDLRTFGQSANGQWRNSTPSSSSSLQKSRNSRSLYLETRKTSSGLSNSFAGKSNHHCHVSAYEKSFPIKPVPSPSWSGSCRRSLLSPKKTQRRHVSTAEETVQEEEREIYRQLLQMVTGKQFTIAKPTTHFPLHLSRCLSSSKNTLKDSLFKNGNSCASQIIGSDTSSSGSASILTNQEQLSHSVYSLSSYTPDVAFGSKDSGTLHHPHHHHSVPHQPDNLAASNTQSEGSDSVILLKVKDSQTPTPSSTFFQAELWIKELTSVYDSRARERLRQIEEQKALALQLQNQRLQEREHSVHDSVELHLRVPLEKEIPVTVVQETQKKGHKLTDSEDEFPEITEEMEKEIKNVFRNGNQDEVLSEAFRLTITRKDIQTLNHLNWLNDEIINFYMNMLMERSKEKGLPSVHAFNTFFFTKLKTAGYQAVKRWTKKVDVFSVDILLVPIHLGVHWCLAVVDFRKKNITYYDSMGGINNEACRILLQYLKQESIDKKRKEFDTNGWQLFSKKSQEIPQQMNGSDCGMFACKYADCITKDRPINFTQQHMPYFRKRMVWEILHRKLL

[2] = target: T1, Sentrin-specific protease 1; assay: Dose response confirmation of small molecule inhibitors of the catalytic domain of the SUMO protease, SENP1 in a FRET assay.; format: functional; conditions: read-out: IC50_Mean
Vero [3] = assay: Vero cell toxicity, dose response, cytotoxicity control, plate reader, cherry-pick samples (AID 687020); format: functional, cell-based; conditions: Chlorocebus sabaeus
[4] = target: T2, Carboxy-terminal domain RNA polymerase II polypeptide A small phosphatase 1 (Homo sapiens, UniProt Q9GZU7); assay: inhibitors of CTDSP1, concentration-response testing, biochemical assay, absorbance-based, actives from ultra-high-throughput screening (AID 540297); format: functional
T2 sequence (Q9GZU7 whole entry): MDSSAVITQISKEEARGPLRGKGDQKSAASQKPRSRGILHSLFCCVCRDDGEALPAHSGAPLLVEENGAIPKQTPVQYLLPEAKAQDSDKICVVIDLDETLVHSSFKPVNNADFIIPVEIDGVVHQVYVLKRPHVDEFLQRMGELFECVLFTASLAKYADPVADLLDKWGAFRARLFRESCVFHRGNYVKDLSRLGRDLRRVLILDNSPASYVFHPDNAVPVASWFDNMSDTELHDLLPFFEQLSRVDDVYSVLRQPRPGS

[5] = target: T3, Small ubiquitin-related modifier 1 (Homo sapiens, UniProt P63165); assay: inhibitors of SUMO1 peptide binding, dose response, biochemical, fluorescence polarization, uHTS hits (AID 624382); format: functional; conditions: read-out: IC50_Mean
T3 sequence (P63165 whole entry): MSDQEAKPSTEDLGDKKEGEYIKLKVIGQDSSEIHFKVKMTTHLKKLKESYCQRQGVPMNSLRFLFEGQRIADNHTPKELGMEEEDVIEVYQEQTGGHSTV

[6] = target: T3, Small ubiquitin-related modifier 1; assay: inhibitors of SUMO1 partner interactions, dose response, biochemical, FRET (AID 624383); format: functional; conditions: read-out: IC50_Mean
Caspase-6 = target: T4, Caspase-6 (Homo sapiens, UniProt P55212); assay: human caspase-6 inhibitors, dose response, biochemical, VEID-R110 fluorescence, cherry-pick (AID 720632)
T4 sequence (P55212 whole entry): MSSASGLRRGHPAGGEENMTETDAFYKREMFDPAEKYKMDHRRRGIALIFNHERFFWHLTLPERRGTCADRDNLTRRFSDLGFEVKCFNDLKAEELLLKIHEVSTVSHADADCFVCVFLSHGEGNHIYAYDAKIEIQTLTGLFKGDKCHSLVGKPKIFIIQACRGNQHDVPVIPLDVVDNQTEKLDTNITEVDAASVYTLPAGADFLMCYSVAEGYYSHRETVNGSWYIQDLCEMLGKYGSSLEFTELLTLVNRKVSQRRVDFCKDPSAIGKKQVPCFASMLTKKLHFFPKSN

[7] = tested on: Streptococcus sp. 'group A'; assay: growth inhibition of control SK(-) GAS strain, dose response, counter-screen for streptokinase expression inhibitor project, luminescence, kanamycin, BacTiterGlo, confirmation (AID 1900); format: functional, organism-based
Streptokinase A = target: T5, Streptokinase A (Streptococcus pyogenes serotype M1, UniProt P10520); assay: S. pyogenes streptokinase expression inhibitors, potency, dose response, plasminogen activation absorbance, OD405 (AID 1914); format: functional, Streptococcus pyogenes M1 GAS;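 note: secreted streptokinase activity via plasminogen activation per viability signal from cell pellet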
T5 sequence (P10520 whole entry): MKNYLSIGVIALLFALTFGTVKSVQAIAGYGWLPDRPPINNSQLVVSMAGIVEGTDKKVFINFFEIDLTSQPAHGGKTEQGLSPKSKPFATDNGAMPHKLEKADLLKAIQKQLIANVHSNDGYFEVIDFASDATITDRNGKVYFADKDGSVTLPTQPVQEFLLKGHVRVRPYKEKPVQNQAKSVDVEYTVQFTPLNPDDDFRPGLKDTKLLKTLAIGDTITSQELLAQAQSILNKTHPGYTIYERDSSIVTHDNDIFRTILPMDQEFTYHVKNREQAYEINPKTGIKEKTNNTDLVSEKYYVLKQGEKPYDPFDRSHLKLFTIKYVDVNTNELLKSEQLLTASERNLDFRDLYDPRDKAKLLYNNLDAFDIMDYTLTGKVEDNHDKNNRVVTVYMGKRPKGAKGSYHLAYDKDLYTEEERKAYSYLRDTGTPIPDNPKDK

Streptococcus = assay: Group A Streptococcus viability loss, dose response, counter-screen for streptokinase expression inhibitor project, luminescence, BacTiterGlo (AID 1915); format: functional, organism-based;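 note: potency for reduction of bacterial viability or growth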
[8] = HEK293T cell cytotoxicity, dose response, cytotoxicity control for HIV Vif inhibitor project, cherry-picks (AID 652208); format: functional, cell-based
[9] = target: Melanin-concentrating hormone receptor 1 (Homo sapiens, UniProt Q99705); assay: Late-stage fluorescence-based counterscreen for antagonists of the G-protein coupled receptor 7 (GPR7): cell-based dose response assay to identify antagonists of the melanin-concentrating hormone receptor 1 (MCHR1) Set 6.; format: functional
Chain of Melanin-concentrating hormone receptor 1 (Q99705 whole entry): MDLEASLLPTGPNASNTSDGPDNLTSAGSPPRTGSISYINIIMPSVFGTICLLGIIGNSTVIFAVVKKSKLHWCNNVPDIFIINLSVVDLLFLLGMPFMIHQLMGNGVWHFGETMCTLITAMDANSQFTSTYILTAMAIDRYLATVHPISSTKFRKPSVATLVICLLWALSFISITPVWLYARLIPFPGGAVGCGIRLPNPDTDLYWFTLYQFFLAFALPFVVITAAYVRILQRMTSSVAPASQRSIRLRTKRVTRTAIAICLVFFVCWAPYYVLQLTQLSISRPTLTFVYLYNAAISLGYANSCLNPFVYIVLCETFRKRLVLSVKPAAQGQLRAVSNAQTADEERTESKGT

[10] = target: T6, Neuropeptides B/W receptor type 1 (Homo sapiens, UniProt P48145); assay: GPR7 antagonist potency, late-stage follow-up, cell-based, fluorescence, dose response, set 6 (AID 588583); format: functional
T6 sequence (P48145 whole entry): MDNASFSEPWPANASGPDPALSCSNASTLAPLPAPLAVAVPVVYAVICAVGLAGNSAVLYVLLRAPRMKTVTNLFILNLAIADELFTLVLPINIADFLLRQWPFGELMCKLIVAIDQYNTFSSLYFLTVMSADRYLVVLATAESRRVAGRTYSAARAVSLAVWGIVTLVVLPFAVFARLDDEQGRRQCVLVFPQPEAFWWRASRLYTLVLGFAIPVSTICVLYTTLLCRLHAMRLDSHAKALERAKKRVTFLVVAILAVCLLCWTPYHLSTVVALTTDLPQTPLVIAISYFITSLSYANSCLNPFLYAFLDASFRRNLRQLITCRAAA

Vero [11] = assay: cells; format: functional; conditions: Chlorocebus sabaeus
[12] = target: Photoreceptor-specific nuclear receptor (Homo sapiens, UniProt Q9Y5X4); format: functional, cell-based;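 note: CHO-S cells with Gal4-NCOR and VP16-NR2E3 two-hybrid luciferase reporter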
Chain of Photoreceptor-specific nuclear receptor (Q9Y5X4 whole entry, the tested form may be a part): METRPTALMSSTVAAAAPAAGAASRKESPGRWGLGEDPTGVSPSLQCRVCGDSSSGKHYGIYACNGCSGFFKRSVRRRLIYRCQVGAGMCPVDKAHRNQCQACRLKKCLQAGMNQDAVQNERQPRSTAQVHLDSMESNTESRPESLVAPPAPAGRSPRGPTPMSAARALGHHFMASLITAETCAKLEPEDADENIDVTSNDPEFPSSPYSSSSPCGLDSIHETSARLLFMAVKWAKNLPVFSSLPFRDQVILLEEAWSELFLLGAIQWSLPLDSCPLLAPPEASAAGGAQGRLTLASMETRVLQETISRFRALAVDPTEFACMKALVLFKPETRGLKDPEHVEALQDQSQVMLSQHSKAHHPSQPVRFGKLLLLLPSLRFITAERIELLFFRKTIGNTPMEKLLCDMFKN

[13] = inhibitors of HIV Env-driven cell fusion, dose response, cherry-pick (AID 652057); format: functional, cell-based
[14] = CEM21 lymphoblast cell cytotoxicity, dose response, cytotoxicity control for viral fusion inhibitor project, CellTiter-Glo luminescence, cherry-picked (AID 652042); format: functional, cell-based;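 note: potency for signal decrease meaning cytotoxicity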
[15] = ZM109 Env clade C HIV-1 fusion inhibitors, dose response, HeLa effector, CEM target cells, luciferase, cherry-pick (AID 652058); format: functional, cell-based
[16] = off-target signal loss in HeLa-CEM21 co-culture – HeLa F-luc CTL cells, cherry-picked, counter-screen for HIV-1 Env fusion inhibitor project, dose response (AID 652040); format: functional, cell-based;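 note: potency for signal decrease marking cytotoxic or nonspecific inhibition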
[17] = inhibitors of clade B AD8 Env fusion, dose response, cell-based, cherry-pick (AID 652062); format: functional;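 note: luciferase signal from cell-cell fusion driven by HIV-1 clade B AD8 Env; potency is for inhibitors of fusion seen as a drop in luminescence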

Cc1c(C#N)c(O)nc(O)c1N=Nc1ccc(Br)cc1C(=O)O
IC50 [1]: 18.1 µM (active) | IC50 [2]: 10.6 µM (active)

COCCNC(=O)c1cc2cc3ccc(OC)cc3nc2o1
AC50 (Vero [3]): 27.7 µM (active)

CC1=CCC(C(=O)O)C(C(=O)NC2CCCCC2)C1 (configuration not stated)
IC50 [4]: 33.8 µM (active) | IC50 [5]: > 66.6 µM (inactive) | IC50 [6]: 20.4 µM (inactive) | AC50 (Caspase-6): 10.2 µM (active)

COC(=O)c1c(NC(=O)c2ccccc2)sc(C(=O)c2ccccc2)c1C
EC50 [7]: 6.12 µM (active) | EC50 (Streptokinase A): > 150 µM (not active) | EC50 (Streptococcus): 18.4 µM (active) | IC50 [1]: 15.6 µM (active) | IC50 [2]: 21.3 µM (inactive)

O=C(c1ccncc1)N1CCCC(N2CCN(c3cccc(C(F)(F)F)c3)CC2)C1 (configuration not stated)
AC50 (Vero [3]): 31.8 µM (active)

Cc1ccc(S(=O)(=O)c2nc(-c3ccccc3Cl)oc2N(C)C2CCN(C)CC2)cc1
AC50 [8]: 23.3 µM (active)

CC(C)(C#N)c1c(Cl)cnn(Cc2cccc3ccccc23)c1=O
IC50 [9]: 2.5 µM (active) | IC50 [10]: 2.5 µM (active)

O=c1c(-c2ccc(F)c(F)c2)c(Br)cnn1Cc1cccc2ccccc12
IC50 [9]: 0.686 µM (active) | IC50 [10]: 0.686 µM (active)

COc1ccc(Oc2c(Cl)cnn(Cc3ccccc3[N+](=O)[O-])c2=O)cc1
IC50 [9]: 1.41 µM (active) | IC50 [10]: 1.41 µM (active)

CN(C)c1ncnc2c1ccn2C1OC(CO)C(O)C1O (configuration not stated)
CC50 (Vero [11]): > 25 µM (active) | IC50 [12]: 1.45 µM (active) | AC50 [13]: 4.51 µM (active) | AC50 [14]: 1.39 µM (active) | AC50 [15]: 3.41 µM (active) | AC50 [16]: 1.9 µM (active) | AC50 [17]: 1.89 µM (active)
